Assay results from patent US4292241A, “Antibiotic PA-31088-IV and production thereof” (Shionogi & Co., Ltd., priority 1979, dated 1981).
Values belong to the compound of their own block, whether it stands above or below them.

How the values were obtained:
[1] = tested on: P. vulgaris 50; assay: Synergistic activity with other β-lactam antibiotics (MIC); assay type: cell-based
Excerpt: (§1) (c) Synergistic activity with other β-lactam antibiotics

[2] = tested on: S. marcescens 39; assay: as above; assay type: cell-based
Excerpt: as §1

[3] = tested on: S. aureus 2132; assay: as above; assay type: cell-based
[4] = tested on: Streptococcus pneumoniae I; assay: Antibacterial spectrum (MIC); assay type: cell-based; conditions: inoculum one loopful of 10^6 cfu/ml
Excerpt: (§2) (a) Antibacterial spectrum | Inoculum size = one loopful of 10^6 cfu/ml

[5] = tested on: Enterobactor cloacae 233; assay: Antibacterial spectrum (MIC); assay type: cell-based; conditions: inoculum one loopful of 10^6 cfu/ml
Excerpt: as §2

[6] = tested on: Klebsiella sp. 363 (R); assay: Antibacterial spectrum (MIC); assay type: cell-based; conditions: inoculum one loopful of 10^6 cfu/ml
Excerpt: as §2

[7] = tested on: Proteus mirabilis PR-4; assay: Antibacterial spectrum (MIC); assay type: cell-based; conditions: inoculum one loopful of 10^6 cfu/ml
Excerpt: as §2

[8] = tested on: Klebsiella pneumoniae SRL-1; assay: Antibacterial spectrum (MIC); assay type: cell-based; conditions: inoculum one loopful of 10^6 cfu/ml
Excerpt: as §2

[9] = tested on: Escherichia coli NIHJ JC-2; assay: Antibacterial spectrum (MIC); assay type: cell-based; conditions: inoculum one loopful of 10^6 cfu/ml
Excerpt: as §2

[10] = tested on: Pseudomonas aeruginosa ATCC 25619; assay: Antibacterial spectrum (MIC); assay type: cell-based; conditions: inoculum one loopful of 10^6 cfu/ml
Excerpt: as §2

[11] = tested on: Serratia marcescens ATCC 13880; assay: Antibacterial spectrum (MIC); assay type: cell-based; conditions: inoculum one loopful of 10^6 cfu/ml
Excerpt: as §2

[12] = tested on: Staphylococcus aureus 209P JC-1; assay: Antibacterial spectrum (MIC); assay type: cell-based; conditions: inoculum one loopful of 10^6 cfu/ml
Excerpt: as §2

[13] = tested on: lactamase of penicillinase type (Klebsiella sp. 363); assay: β-Lactamase inhibitory activity; assay type: biochemical; conditions: β-lactamase producing bacteria Klebsiella sp. 363, penicillinase type
Excerpt: (§3) (b) β-Lactamase inhibitory activity
**produces lactamase of penicillinase type

[14] = biological target: lactamase of cephalosporinase type (Enterobactor cloacae 92) (Enterobacter cloacae, UniProt P05364); assay: β-Lactamase inhibitory activity; assay type: biochemical; conditions: β-lactamase producing bacteria Enterobactor cloacae 92, cephalosporinase type
Excerpt: as §3
*produces lactamase of cephalosporinase type

Chain of lactamase of cephalosporinase type (Enterobactor cloacae 92) (P05364 21-381): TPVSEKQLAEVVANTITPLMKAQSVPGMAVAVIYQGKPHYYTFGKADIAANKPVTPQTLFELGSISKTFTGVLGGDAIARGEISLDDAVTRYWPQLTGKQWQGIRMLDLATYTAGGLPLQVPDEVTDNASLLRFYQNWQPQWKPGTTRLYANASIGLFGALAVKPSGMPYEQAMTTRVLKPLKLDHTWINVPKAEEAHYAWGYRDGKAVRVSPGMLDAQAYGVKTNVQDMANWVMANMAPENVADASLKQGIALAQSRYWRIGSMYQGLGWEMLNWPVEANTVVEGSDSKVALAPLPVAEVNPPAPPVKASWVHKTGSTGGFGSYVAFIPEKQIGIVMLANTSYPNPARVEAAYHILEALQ

- MIC of Ampicillin ([1]; PA-31088-IV 0 μg/ml): > 200 µg/mL
- MIC of Ampicillin ([1]; with PA-31088-IV 2.5 μg/ml): 6.3 µg/mL
- MIC of Ampicillin ([1]; with PA-31088-IV 10 μg/ml): 1.6 µg/mL
- MIC of Ampicillin ([2]; PA-31088-IV 0 μg/ml): > 200 µg/mL
- MIC of Ampicillin ([2]; with PA-31088-IV 2.5 μg/ml): 3.1 µg/mL
- MIC of Ampicillin ([2]; with PA-31088-IV 10 μg/ml): 0.1 µg/mL
SMILES: CC1(C)S[C@@H]2[C@H](NC(=O)[C@H](N)c3ccccc3)C(=O)N2[C@H]1C(=O)O [Ampicillin, ampicillin]

- MIC of Cefazolin ([1]; PA-31088-IV 0 μg/ml): > 200 µg/mL
- MIC of Cefazolin ([1]; with PA-31088-IV 2.5 μg/ml): 6.3 µg/mL
- MIC of Cefazolin ([1]; with PA-31088-IV 10 μg/ml): 3.1 µg/mL
- MIC of Cefazolin ([2]; PA-31088-IV 0 μg/ml): > 200 µg/mL
- MIC of Cefazolin ([2]; with PA-31088-IV 2.5 μg/ml): 6.3 µg/mL
- MIC of Cefazolin ([2]; with PA-31088-IV 10 μg/ml): 0.4 µg/mL
- MIC of Cefazolin ([3]; PA-31088-IV 0 μg/ml): 6.3 µg/mL
- MIC of Cefazolin ([3]; with PA-31088-IV 2.5 μg/ml): 0.8 µg/mL
- MIC of Cefazolin ([3]; with PA-31088-IV 10 μg/ml): 0.4 µg/mL
SMILES: Cc1nnc(SCC2=C(C(=O)O)N3C(=O)[C@@H](NC(=O)Cn4cnnn4)[C@H]3SC2)s1 [Cefazolin, cefazolin]

- Minimum Inhibitory Concentration (β-lactamase inhibitory activity) [13]: 0.06 µg/mL
- MIC of PA-31088-IV ([1]; PA-31088-IV alone): > 10 µg/mL
- MIC of PA-31088-IV ([2]; PA-31088-IV alone): > 10 µg/mL
- MIC of PA-31088-IV ([3]; PA-31088-IV alone): > 10 µg/mL
- Minimum Inhibitory Concentration (β-lactamase inhibitory activity) [14]: 0.98 µg/mL
SMILES: CC(=O)NC=CS(=O)(=O)C1=C(C(=O)O)N2C(=O)C(=C(C)CO)C2C1 (centres unmarked) [PA-31088-IV, 3-[(2-acetamidoethylene)sulfonyl]-6-(2-hydroxy-1-methylethylidene)-7-oxo-1-azabicyclo[3.2.0]hept-2-ene-2-carboxylic acid]
- Minimum Inhibitory Concentration [4]: 0.39 µg/mL
- Minimum Inhibitory Concentration [5]: 3.13 µg/mL
- Minimum Inhibitory Concentration [6]: 3.13 µg/mL
- Minimum Inhibitory Concentration [7]: 6.25 µg/mL
- Minimum Inhibitory Concentration [8]: 1.56 µg/mL
- Minimum Inhibitory Concentration [9]: 3.13 µg/mL
- Minimum Inhibitory Concentration [10]: 50 µg/mL
- Minimum Inhibitory Concentration [11]: 12.5 µg/mL
- Minimum Inhibitory Concentration [12]: 3.13 µg/mL
